# Test results taken from PMC12594208, “SLC25A45 is required for mitochondrial uptake of methylated amino acids and de novo carnitine biosynthesis” (Molecular Cell, 2025).
# Columns and labels:
# SLC25A45-8xHis [1] = target: T1, SLC25A45-8xHis (Homo sapiens, UniProt Q8N413); test: uptake by isolated mitochondria, LC-MS; type: biochemical; conditions: 10 μM; pH 7.25, room temperature; labelled compound
# T1 construct: SLC25A45-Xa-8xHis, tag kept; in mitochondria isolated from FreeStyle 293-F cells
# T1 sequence (Q8N413 1-288): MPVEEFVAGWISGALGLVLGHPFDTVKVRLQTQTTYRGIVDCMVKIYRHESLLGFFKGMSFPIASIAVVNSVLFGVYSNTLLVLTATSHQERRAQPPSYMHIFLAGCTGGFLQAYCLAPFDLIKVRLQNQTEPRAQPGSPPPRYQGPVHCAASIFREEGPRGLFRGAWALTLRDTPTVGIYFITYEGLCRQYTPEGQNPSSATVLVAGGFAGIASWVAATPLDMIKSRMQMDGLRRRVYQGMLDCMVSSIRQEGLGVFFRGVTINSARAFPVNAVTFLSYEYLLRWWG
# SLC25A45-8xHis [2] = target: T1, SLC25A45-8xHis; test: competition of [2H9]-TML uptake by isolated mitochondria, LC-MS; type: biochemical; conditions: 10 mM unlabelled TML against 10 μM [2H9]-TML, 10 min, pH 7.25, room temperature
# purified human SLC25A45 = target: T2, purified human SLC25A45 (Homo sapiens, UniProt Q8N413); test: nanoDSF thermostability shift; type: binding; conditions: 10 mM compound, 20 mM HEPES pH 7.0, 50 mM NaCl, cardiolipin/LMNG, 25-95 °C at 4 °C per min
# T2 construct: codon-optimised; N-terminal extension GKPRTSPK (residues 14-21 of human oxoglutarate carrier), eight-His tag and Factor Xa site, Factor Xa cleaved; from S. cerevisiae BJ2168 mitochondria; 33,118 Da; in lauryl maltose neopentyl glycol / tetraoleoyl cardiolipin
# T2 sequence (Q8N413 1-288): T1 sequence (Q8N413 1-288)
molecule,measurement,setting,value
CN(C)C(=N)NCCC[C@H](N)C(=O)O [[^2H6]-ADMA],"uptake by isolated mitochondria, LC-MS",SLC25A45-8xHis [1],SLC25A45 was also required for the mitochondrial uptake of the deuterium-labeled dimethylarginine isomers
C[N+](C)(C)CCCC[C@H](N)C(=O)O [trimethyllysine],"competition of [2H9]-TML uptake by isolated mitochondria, LC-MS",SLC25A45-8xHis [2],mitochondrial import of [^2H9]-TML was abolished by co-incubation with excess unlabeled trimethyllysine
same,ΔTm,purified human SLC25A45,3.4 °C
dimethylarginine,ΔTm,purified human SLC25A45; isomer not told,7.5 °C
CN=C(NC)NCCC[C@H](N)C(=O)O [[^2H6]-SDMA],"uptake by isolated mitochondria, LC-MS",SLC25A45-8xHis [1],SLC25A45 was also required for the mitochondrial uptake of the deuterium-labeled dimethylarginine isomers
